Results on one compound are retold here after US20040121029A1, “Antiulcer herbal composition(s)” (Council of Scientific & Industrial Research, priority 2002, published 2004).

Marks after values point to notes of the source that are not given here.

The subject of assay [1] is pylorus ligation (PL) - induced gastric ulcers. The experiment in a line: Pylorus ligation (PL) - induced ulcers in rats. It is filed as in vivo. Particulars: dose 50. On the procedure: 4. Pylorus ligated induced ulcers: Animals were anaesthetized using pentobarbitione (35 mg/kg, i.p.), the abdomen was opened and pylorus ligation was done without causing any damage to its blood supply. The stomach was replaced carefully and the abdomen wall was closed in 2 layers with interrupted sutures. The animals were deprived of water during postoperative period. After 4 hours stomach were dissected out and contents were collected and ulcer index was calculated.

Assay [2] relates to cold restraint stress (CRS) - induced gastric ulcers. The experiment in a line: Cold restraint stress (CRS) - induced ulcers in rats. It is filed as in vivo. Particulars: dose 50. On the procedure:
3. Cold restraint stress—induced ulcers: Rats were strapped on a wooden plank and kept them at 4-6° C. for 2 hours. The animals were then sacrificed by cervical dislocation and ulcers were scored on the dissected stomach.

With `CNC(=C[N+](=O)[O-])NCCSCc1ccc(CN(C)C)o1` [Ranitidine], in assay [1], the “PL - induced ulcers % Curative Ratio” value came out at 64.82%. The “PL - induced ulcers Ulcer Index” value in assay [1] (mean ± SEM, six rats) was 5.1 ± 1.3^b. Further, the “CRS - induced ulcers % Curative Ratio” value in assay [2] was 79.68%. The “CRS - induced ulcers Ulcer Index” value in assay [2] (mean ± SEM, six rats) is listed as 5.2 ± 1.1^c.
